This is an account of results in patent US20250129070A1, “BIFUNCTIONAL ANDROGEN RECEPTOR COMPOUNDS” (priority 2023, published 2025).

One test has as its system AR / CBP ternary complex. In words: Ternary complex formation assay (sandwich ELISA, AR capture / CBP detection) in VCaP cell lysates. It counts as cell-based. The following applies: 1.5 hours treatment, sandwich ELISA (AR capture, CBP or p300 detection). A digest of the protocol:
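VCaP cells (50K/well, 5% charcoal-stripped FBS, ≥3 days) treated with bifunctional compound for 1.5 h, then lysed 30 min at 4 °C. AR captured on anti-AR (AR 441) plates; bound CBP or p300 detected by rabbit mAb plus HRP secondary. QuantaRed chemifluorescence read at ex 570/em 585, immediately and at 5 and 15 min.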
Background: ELISA stands for enzyme-linked immunosorbent assay.

Another test deals with VCaP cells. The test is described as follows: VCaP growth inhibition assay. The format is cell-based. As to conditions: 30 pM R1881, 9 days, CTG. A digest of the protocol: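 VCaP cells in phenol red-free DMEM/5% CSS, pre-incubated 72 h, then stimulated with R1881 (final 30 pM) and treated with 1:5 serial dilutions (final 100 nM to 10 fM) for 9 days at 37 °C. Viability by CellTiter-Glo luminescence; IC50 from 4-parameter logistic fit of RLU vs concentration.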

Broadly, the EC50 is the concentration that produces a half-maximal response. Read a high EC50 as a less potent agent. What is called IC50 is the point on the concentration scale where inhibition reaches its midpoint. High values mean weaker potency, low ones greater potency. In the case of `COc1cc(OC2C(C)(C)C(NC(=O)c3ccc(N4CCN(CCc5ccc(-c6cc7c(cn6)N(c6nn(C8CCOCC8)c8c6CN(C(C)=O)CC8)CCC7)cn5)CC4)cc3)C2(C)C)ccc1C#N` (stereo not shown) [Compound 251, 4-[4-[2-[5-[1-(5-acetyl-1-tetrahydropyran-4-yl-6,7-dihydro-4H-pyrazolo[4,3-c]pyridin-3-yl)-3,4-dihydro-2H-1,7-naphthyridin-6-yl]-2-pyridyl]ethyl]piperazin-1-yl]-N-[3-(4-cyano-3-methoxy-phenoxy)-2,2,4,4-tetramethyl-cyclobutyl]benzamide], in the test on AR / CBP ternary complex, the EC50 was less than 1 nM. In the test with VCaP cells, this compound returned an IC50 of 0.1 to 1 nM.
In turn, `COc1cc(OC2C(C)(C)C(NC(=O)c3ccc(N4CCC5(CCC(n6nc(N7CCCc8cc(-c9cnn(C)c9)c(C(F)F)cc87)c7c6CCN(C(C)=O)C7)CC5)C4)cc3)C2(C)C)ccc1C#N` (stereo not shown) [Compound 406, 4-[8-[5-acetyl-3-[7-(difluoromethyl)-6-(1-methylpyrazol-4-yl)-3,4-dihydro-2H-quinolin-1-yl]-6,7-dihydro-4H-pyrazolo[4,3-c]pyridin-1-yl]-2-azaspiro[4.5]decan-2-yl]-N-[3-(4-cyano-3-methoxy-phenoxy)-2,2,4,4-tetramethyl-cyclobutyl]benzamide] came in with an EC50 with AR / CBP ternary complex of 1 to 10 nM. Moreover, in the test on VCaP cells, the IC50 was 1 to 100 nM.
`COc1cc(OC2C(C)(C)C(NC(=O)c3ccc(N4CCC(N5CCC(n6nc(N7CCCc8cc(-c9cnn(C)c9)c(C(F)F)cc87)c7c6CCN(C(C)=O)C7)CC5)C(C)C4)cc3)C2(C)C)ccc1C#N` (stereo not shown) [Compound 304, 4-[4-[4-[5-acetyl-3-[7-(difluoromethyl)-6-(1-methylpyrazol-4-yl)-3,4-dihydro-2H-quinolin-1-yl]-6,7-dihydro-4H-pyrazolo[4,3-c]pyridin-1-yl]-1-piperidyl]-3-methyl-1-piperidyl]-N-[3-(4-cyano-3-methoxy-phenoxy)-2,2,4,4-tetramethyl-cyclobutyl]benzamide] yielded an EC50 in the test on AR / CBP ternary complex of less than 1 nM. In the test on VCaP cells, this compound registered an IC50 of 0.1 to 1 nM.
For `CC(=O)N1CCc2c(c(N3CCCc4cc(-c5cnn(C)c5)c(C(F)F)cc43)nn2CCCOC2CCN(c3ncc(C(=O)NC4C(C)(C)C(Oc5ccc(C#N)c(Cl)c5)C4(C)C)cn3)CC2)C1` (stereo not shown) [Compound 9, 2-[4-[3-[5-acetyl-3-[7-(difluoromethyl)-6-(1-methylpyrazol-4-yl)-3,4-dihydro-2H-quinolin-1-yl]-6,7-dihydro-4H-pyrazolo[4,3-c]pyridin-1-yl]propoxy]-1-piperidyl]-N-[3-(3-chloro-4-cyano-phenoxy)-2,2,4,4-tetramethyl-cyclobutyl]pyrimidine-5-carboxamide], in that order: less than 1 nM and 0.1 to 1 nM.
Take `Cn1c(=O)sc2ccc(-c3cccc4cc(-c5ccc(CCC6CCN(c7ncc(C(=O)NC8C(C)(C)C(Oc9ccc(C#N)c(Cl)c9)C8(C)C)cn7)CC6)nc5)ncc34)cc21` (stereo not shown) [Compound 235, N-[3-(3-chloro-4-cyano-phenoxy)-2,2,4,4-tetramethyl-cyclobutyl]-2-[4-[2-[5-[8-(3-methyl-2-oxo-1,3-benzothiazol-5-yl)-3-isoquinolyl]-2-pyridyl]ethyl]-1-piperidyl]pyrimidine-5-carboxamide]: the EC50 with AR / CBP ternary complex was less than 1 nM. Moreover, in the test with VCaP cells, the IC50 was more than 100 nM.
Compound `CC(=O)N1CCc2c(c(-c3cccc4cc(-c5cnn(C)c5)ncc34)nn2C2CCN(CC3CCN(c4ncc(C(=O)NC5C(C)(C)C(Oc6ccc(C#N)c(Cl)c6)C5(C)C)cn4)CC3)CC2)C1` (stereo not shown) [Compound 136, 2-[4-[[4-[5-acetyl-3-[3-(1-methylpyrazol-4-yl)-8-isoquinolyl]-6,7-dihydro-4H-pyrazolo[4,3-c]pyridin-1-yl]-1-piperidyl]methyl]-1-piperidyl]-N-[3-(3-chloro-4-cyano-phenoxy)-2,2,4,4-tetramethyl-cyclobutyl]pyrimidine-5-carboxamide] displayed an EC50 with AR / CBP ternary complex of less than 1 nM. This compound also yielded an IC50 in the test with VCaP cells not above 0.1 nM.
For `COc1cc(OC2C(C)(C)C(NC(=O)c3ccc(N4CCC(C5CCC(n6cc(-c7cc8cccc(-c9nn(C%10CCOCC%10)c%10c9CN(C(C)=O)CC%10)c8cn7)cn6)CC5)CC4)cc3)C2(C)C)ccc1C#N` (stereo not shown) [Compound 271, 4-[4-[4-[4-[8-(5-acetyl-1-tetrahydropyran-4-yl-6,7-dihydro-4H-pyrazolo[4,3-c]pyridin-3-yl)-3-isoquinolyl]pyrazol-1-yl]cyclohexyl]-1-piperidyl]-N-[3-(4-cyano-3-methoxy-phenoxy)-2,2,4,4-tetramethylcyclobutyl]benzamide], in that order: less than 1 nM and 0.1 to 1 nM.
In turn, `CC(=O)N1CCc2c(c(-c3cccc4cc(-c5cnn(CCC6CCN(c7ncc(C(=O)NC8C(C)(C)C(Oc9ccc(C#N)c(Cl)c9)C8(C)C)cn7)CC6)c5)ncc34)nn2C2CCOCC2)C1` (stereo not shown) [Compound 139, 2-[4-[2-[4-[8-(5-acetyl-1-tetrahydropyran-4-yl-6,7-dihydro-4H-pyrazolo[4,3-c]pyridin-3-yl)-3-isoquinolyl]pyrazol-1-yl]ethyl]-1-piperidyl]-N-[3-(3-chloro-4-cyano-phenoxy)-2,2,4,4-tetramethyl-cyclobutyl]pyrimidine-5-carboxamide] came in with an EC50 in the test with AR / CBP ternary complex of more than 100 nM. The same compound showed an IC50 in the test with VCaP cells not above 0.1 nM.
Take `CC(=O)N1CCc2c(c(N3CCCc4cc(-c5cnn(C)c5)c(C(F)F)cc43)nn2C2CCN(Cc3ncc(C(=O)NC4C(C)(C)C(Oc5ccc(C#N)c(Cl)c5)C4(C)C)cn3)CC2)C1` (stereo not shown) [Compound 94, 2-[[4-[5-acetyl-3-[7-(difluoromethyl)-6-(1-methylpyrazol-4-yl)-3,4-dihydro-2H-quinolin-1-yl]-6,7-dihydro-4H-pyrazolo[4,3-c]pyridin-1-yl]-1-piperidyl]methyl]-N-[3-(3-chloro-4-cyano-phenoxy)-2,2,4,4-tetramethyl-cyclobutyl]pyrimidine-5-carboxamide]: the EC50 in the test on AR / CBP ternary complex lay in the range of 10 to 100 nM. In the test with VCaP cells, the IC50 is 1 to 100 nM.
In the case of `CC(=O)N1CCc2c(c(Nc3ccc(-c4cnn(C)c4)cc3F)nn2C2CCN(C(=O)CC3CCN(c4ncc(C(=O)NC5C(C)(C)C(Oc6ccc(C#N)c(Cl)c6)C5(C)C)cn4)CC3)CC2)C1` (stereo not shown) [Compound 178, 2-[4-[2-[4-[5-acetyl-3-[2-fluoro-4-(1-methylpyrazol-4-yl)anilino]-6,7-dihydro-4H-pyrazolo[4,3-c]pyridin-1-yl]-1-piperidyl]-2-oxo-ethyl]-1-piperidyl]-N-[3-(3-chloro-4-cyano-phenoxy)-2,2,4,4-tetramethyl-cyclobutyl]pyrimidine-5-carboxamide], in the test with AR / CBP ternary complex, the EC50 is less than 1 nM. In addition, in the test with VCaP cells, the IC50 was 0.1 to 1 nM.
For `CC(=O)N1CCc2c(c(N3CCCc4cc(-c5cnn(C)c5)c(C(F)F)cc43)nn2C2CCN(C(=O)C3CCN(c4ccc5c(n4)CN(C4C(C)(C)C(Oc6ccc(C#N)c(Cl)c6)C4(C)C)C5=O)CC3)CC2)C1` (stereo not shown) [Compound 299, 4-[3-[2-[4-[4-[5-acetyl-3-[7-(difluoromethyl)-6-(1-methylpyrazol-4-yl)-3,4-dihydro-2H-quinolin-1-yl]-6,7-dihydro-4H-pyrazolo[4,3-c]pyridin-1-yl]piperidine-1-carbonyl]-1-piperidyl]-5-oxo-7H-pyrrolo[3,4-b]pyridin-6-yl]-2,2,4,4-tetramethyl-cyclobutoxy]-2-chloro-benzonitrile], in that order: less than 1 nM and 0.1 to 1 nM.
